In PMC9072872, “Structure-based design of nucleoside-derived analogues as sulfotransferase inhibitors” (RSC Advances, 2019):

Tests used:
TPST1 [1] = molecular target: T1, TPST1 (Homo sapiens, UniProt O60507); experiment: Microfluidic mobility shift sulfation assay, TPST1 (fluorescent CC4-tide substrate); format: biochemical; conditions: for IC50: read-out: IC50 against TPST1
T1 construct: Human TPST1 (residues Lys43-Leu360) enzyme was purified as a recombinant protein; made in house
T1 sequence (O60507 43-360): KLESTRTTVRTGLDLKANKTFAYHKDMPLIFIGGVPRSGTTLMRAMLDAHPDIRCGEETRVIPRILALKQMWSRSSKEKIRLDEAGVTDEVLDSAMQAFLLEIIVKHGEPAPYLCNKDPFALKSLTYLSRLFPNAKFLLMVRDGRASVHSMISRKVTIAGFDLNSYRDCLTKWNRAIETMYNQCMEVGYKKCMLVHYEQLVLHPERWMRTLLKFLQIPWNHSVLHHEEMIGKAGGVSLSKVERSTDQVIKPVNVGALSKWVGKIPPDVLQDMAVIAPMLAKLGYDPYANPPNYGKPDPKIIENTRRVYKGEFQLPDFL
Description: Compounds were initially screened at 400 μM in the presence 20 nM HS2ST and 0.1 μM TPST1 respectively.
Fig. 4 Summary of enzymatic inhibition assays against HS2ST and TPST1. (A) Enzymatic analysis of HS2ST1 inhibition by a panel of PAP- and PAPS-mimetic compounds. […] HS2ST sulfotransferase activity was assayed using a fluorescent hexasaccharide substrate (2 μM) and normalised to DMSO (4% v/v) or buffer control. Data shown is mean and SD of 4 repeat experiments. (B) Full dose–response curves for selected compounds. […] HS2ST activity calculated as previously described. Data from two independent experiments are combined. (C) Enzymatic analysis of TPST1 inhibition by a panel of PAP- and PAPS-mimetic compounds. […] TPST1 activity was measured using fluorescently-labelled CC4-tide (2 μM) and normalised to DMSO (4% v/v) or buffer control. (D) Full dose–response curves for selected compounds. […] TPST1 activity was measured using CC4-tide and normalised to DMSO or buffer controls as previously described. The data shown is from duplicate experiments. […]
TPST1 peptide substrate (CC4-tide, 5-FAM-EDFED YEFDG-CONH2) was synthesised using solid-phase Fmoc chemistry (Pepceuticals, Leicester, UK). All standard laboratory biochemicals, were purchased from Sigma, and were of the highest analytical quality.
(§1) 5'-phosphosulfate, lithium salt hydrate, PAP (adenosine 3',5'-diphosphate, disodium salt), CoA (coenzymeA, sodium salt), ATP (adenosine 5’-triphosphate, disodium salt hydrate) were all purchased from Sigma and stored at -80 °C to minimise degradation.
(§2) Recombinant Protein Production and SDS-PAGE
(§3) Human TPST1 (residues Lys43-Leu360) enzyme was purified as a recombinant protein containing an N-terminal 6xHis tag as previously described. […]
Microfluidics-Based Sulfation Assay
Non-radioactive microfluidic mobility shift peptide and carbohydrate sulfation assays were performed in solution with a 12-sipper chip coated with SR8 reagent and a Perkin Elmer EZ Reader II system 8 using an EDTA-based separation buffer and real-time kinetic evaluation of substrate sulfation. Pressure and voltage settings were adjusted manually to afford optimal separation of the sulfated product and non-sulfated substrate, with a sample (sip) volume of 20 nL, and total assay tim es appropriate for the experiment. The fluorophore tagged TPST1 peptide substrate and HS2ST1 glycan substrate where detected by the EZ Reader via LED-induced fluorescence.
Individual sulfation assays were assembled in a 384 well plate in a volume of 80 µL in the presence of […]
and 5 mM MgCl2. The degree of substrate sulfation was directly calculated using EZ Reader software by measuring the sulfo-product:non-sulfated substrate ratio at each time-point. The act ivity of the sulfotransferase enzymes in the presence of biochemicals and small molecule inhibitors was quantified in ‘kinetic mode’ by monitoring the amount of sulfated product generated over the assay time, relative to control assay with no additional inhibitor molecule (DMSO or buffer control). Data was normalized with respect to these control assays, with sulfate incorporation into the substr ate limited to ~ 20% to prevent depletion of PAPS and to ensure assay linearity. K m and IC50 values were determined by non-linear regression analysis with GraphPad Prism software. […]

TPST1 [2] = molecular target: T1, TPST1; experiment: Immunoblot of GST-CC4tide tyrosine sulfation by TPST1 (anti-sulfotyrosine antibody); format: biochemical; conditions: compound 400 μM, GST-CC4-tide 1 μg, TPST1 0.2 μg, PAPS 5 μM, 15 min
Description: In order to further assess TPST1 inhibition by 2′-deoxy-PAP and compounds 1–14 using a complementary assay, immunoblotting of a TPST1 protein substrate (GST-CC4tide) was implemented with a monoclonal antibody that specifically recognises sulfotyrosine, using PAP as positive control (Fig. 5A). Compounds were screened at 400 μM in the assay. In common with the […] enzyme assay using a synthetic peptide, a broad range of inhibitory activities was observed.
Fig. 5 Immunological evaluation of TPST1 inhibition towards substrate and a Ser/Thr protein kinase counter-screen. (A) Immunoblots evaluating TPST1 sulfotransferase activity in the presence of a panel of PAP- and PAPS-mimetic compounds. […] After termination of the reaction using SDS-PAGE sample buffer, tyrosine sulfation was visualised by immunoblotting using a monoclonal sulfotyrosine antibody (top panel), with equal GST-CC4-tide and TPST1 loading confirmed using an antibody to detect 6xHis tagged proteins (bottom panel). (B) Enzymatic inhibition of PKA catalytic activity by a panel of PAP- and PAPS-mimetic compounds. PKA kinase (1 nM) was incubated with ATP (5 μM) in the presence of the appropriate nucleoside analogue (400 μM) for 30 min at 20 °C. PKA activity was calculated in real-time using fluorescently-labelled substrate peptide (2 μM) and normalised to DMSO (4% v/v) or buffer control.[77] Data in B is mean and SD of 3 individual experiments. Staurosporine is included at 40 μM as a generic inhibitor of kinase activity. […]
All standard laboratory biochemicals, were purchased from Sigma, and were of the highest analytical quality.
as §1, §2, §3
pMAL-c2x plasmid encoding an N-terminal Maltose Binding Protein (MBP) affinity tag.6 Glutathione-S-transferase (GST) tagged CC4-tide ([…]) was cloned into pOPINJ (OPPF-UK) and […]
affinity purified from BL21 (DE3) pLysS E. coli using Glutathione-Sepharose 4B (GE Healthcare). 5 For SDS-PAGE, proteins were denatured in Laemmli sample buffer, heated at 95 °C for 5 min and then analysed by SDS-PAGE with 10% (v/v) polyacrylamide gels. Gels were stained and de-stained using a standard Coomassie Brilliant Blue protocol. To evaluate protein sulfation by immunoblotting, standard western blotting procedures were followed using monoclonal anti-sulfotyrosine ant ibody clone o-1C-A2 (Millipore) generated using a phage display procedure and sulfotyrosine selection peptide antigens7 in the presence of appropriate positive and negative controls, and modifications visua lised using ECL […]
Data was normalized […]
with respect to these control assays, with sulfate incorporation into the substr ate limited to ~ 20% to prevent depletion of PAPS and to ensure assay linearity. K m and IC50 values were determined by non-linear regression analysis with GraphPad Prism software. […]

inhibitory activity against TPST1 (TPST1 [1]; compound 400 μM, TPST1 0.1 μM, PAPS 5 μM) | suppression of tyrosine sulfation (immunoblot) (TPST1 [2]) | IC50 (TPST1 [1]) [µM] | SMILES
inactive | inactive |  | Nc1ncnc2c1ncn2[C@H]1C[C@H](O)[C@@H](Cn2cc(P(=O)(O)O)nn2)O1 [Compound 11]
 | partial suppression | 100 to 300 | Nc1ncnc2c1ncn2[C@H]1C[C@H](O)[C@@H](Cn2cc(P(=O)(O)OCc3ccccc3)nn2)O1 [Compound 13]
 | complete suppression | 3.6 | Nc1ncnc2c1ncn2[C@H]1C[C@H](OP(=O)(O)O)[C@@H](COP(=O)(O)O)O1 [2′-deoxy-PAP]
 | partial suppression | 100 to 300 | Nc1ncnc2c1ncn2[C@H]1C[C@H](OP(=O)(O)O)[C@@H](Cn2cc(P(=O)(O)O)nn2)O1 [Compound 12]
